{"source": "patent US8791118B2", "about": "“Pyridopyrazines as highly selective ras-Raf-Mek-Erk signal transduction pathway inhibitors” (Aeterna Zentaris GmbH, priority 2011, dated 2014)", "key": {"Erk2": {"molecular_target": "Erk2 (Homo sapiens, UniProt P28482)", "sequence (P28482 2-360 limits assumed)": "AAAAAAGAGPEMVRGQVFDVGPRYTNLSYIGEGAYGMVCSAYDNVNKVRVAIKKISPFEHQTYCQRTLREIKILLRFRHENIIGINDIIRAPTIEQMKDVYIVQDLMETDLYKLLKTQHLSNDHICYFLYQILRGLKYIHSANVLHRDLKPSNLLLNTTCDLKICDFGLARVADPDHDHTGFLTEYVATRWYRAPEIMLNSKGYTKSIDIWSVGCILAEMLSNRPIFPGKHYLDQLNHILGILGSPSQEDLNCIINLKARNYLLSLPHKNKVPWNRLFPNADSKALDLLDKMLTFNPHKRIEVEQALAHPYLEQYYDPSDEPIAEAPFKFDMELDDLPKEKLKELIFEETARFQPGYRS", "test": "Erk2 alpha kinase assay (cell-free, ALPHA technology)", "assay_type": "biochemical", "settings": "10 μM ATP", "method": "The inhibitory effect of the compounds according to the invention was tested on various serine/threonine, tyrosine and lipid kinases in enzymatic assays. Recombinant human kinases such as, for example, Erk2, were used in this case, partly as full-length kinases, partly as shortened fragments, but at least consisting of the functional kinase domains. The commercial kinase proteins (Proqinase, Upstate) were used as recombinant fusion proteins with GST (glutathion-S-transferase) or His-Tag. Depending on the type of substrate, the various kinase reactions were quantified by means of suitable ALPHA™ beads (Perkin-Elmer). The substance testing is described in detail hereinafter for the Erk assay. […] a) MAPK-ALPHAs (e.g. […] The fluorescence was detected the following morning in a Envision plate reader (Perkin-Elmer). The %-inhibition values per substance concentration were calculated by means of the following formula from the raw data determined in the Envision plate reader[…]: Eight determinations were made for each control and two for the substance samples. […] The IC50 values were determined using GraphPadPrism."}, "Hct116": {"tested_on": "Hct116", "test": "XTT assay for anti-proliferative effect", "assay_type": "cell-based", "settings": "Homo sapiens, HCT-116; Hct116 tumour cell line, ~48 h incubation", "method": "The principle of this test is based on the intracellular reduction of the tetrazolium dye XTT (sodium 3′-[1-(phenylaminocarbonyl)-3,4-tetrazolium]-bis(4-methoxy-6-nitro)benzene sulfonic acid, Sigma) to a formazan dye by mitochondrial dehydrogenases. The dye is only formed by metabolically active cells and its photometrically measurable intensity is a quantitative indicator for the presence of living cells. The reduction of dye formation by incubation of the cells with substances serves as a parameter for the anti-proliferative effect.\nThe tumour cell lines (ATCC) were injected into 96-well microtitre plates in a defined cell number (1250 cells/well for Hct116) and then incubated overnight in an incubator at 37° C., 5% CO2 and 95% air humidity. The test substances were prepared as stock solutions (10 mM) in DMSO. To determine the EC50 values the potential inhibitor substances were added to the cells in half-logarithmically graded dilutions, resulting in final concentrations of 1.58 nM-50 μM. The cell plates were then incubated for ˜48 h in an incubator at 37° C., 5% CO2 and 95% air humidity.\nFor the detection reaction the substrate XTT was mixed with PMS (N-Methyl dibenzopyrazine methylsulfate, Sigma) and added to the cells so that a final concentration of 325 μg XTT/ml and 2.5 μg PMS/ml was obtained. It was then incubated for 3 h at 37° C., 95% air humidity. The formazan salt formed by the cellular dehydrogenases could then be quantified by adsorption at 490 nm.\nThe % inhibition value was evaluated by means of the following formula from the values for the optical densities measured in each case at 490 nm:\nEight determinations were made for each control and two for the substance samples. The 0% control contains no cells, the 100% control (proliferation control) contains no test substance. The EC50 values were determined using GraphPadPrism."}}, "note": "pEC50, pIC50: −log10 of the molar value. Where a name gives a salt, the structure may show the parent alone."}
{"smiles": "COc1c(CO)cccc1-c1cnc2ccc(NC(=O)N[C@H](C)CCCc3ccccc3)nc2n1", "note": "[Compound 158, 1-[3-(3-Hydroxymethyl-2-methoxy-phenyl)-pyrido[2,3-b]pyrazin-6-yl]-3-((R)-1-methyl-4-phenyl-butyl)-urea]", "values": [{"measurement": "pIC50", "setting": "Erk2", "result": 9.00}, {"measurement": "melting point", "result": "168 to 170", "unit": "°C"}]}
{"smiles": "C[C@H](CCCc1ccccc1)NC(=O)Nc1ccc2ncc(-c3ccc(CO)cc3)nc2n1", "note": "[Compound 167, 1-[3-(4-Hydroxymethyl-phenyl)-pyrido[2,3-b]pyrazin-6-yl]-3-((R)-1-methyl-4-phenyl-butyl)-urea]", "values": [{"measurement": "pIC50", "setting": "Erk2", "result": 8.52}, {"measurement": "melting point", "result": "187 to 190", "unit": "°C"}]}
{"smiles": "C[C@H](CCCc1ccccc1)NC(=O)Nc1ccc2ncc(N3CCCC3)nc2n1", "note": "[Compound 173, 1-((R)-1-Methyl-4-phenyl-butyl)-3-(3-pyrrolidin-1-yl-pyrido[2,3-b]pyrazin-6-yl)-urea]", "values": [{"measurement": "pIC50", "setting": "Erk2", "result": 8.30}, {"measurement": "melting point", "result": "187 to 190", "unit": "°C"}]}
{"smiles": "C[C@H](CCCc1ccccc1)NC(=O)Nc1ccc2ncc(-c3cnn(CCN4CCOCC4)c3)nc2n1", "note": "[Compound 168, 1-((R)-1-Methyl-4-phenyl-butyl)-3-{3-[1-(2-morpholin-4-yl-ethyl)-1H-pyrazol-4-yl]-pyrido[2,3-b]pyrazin-6-yl}-urea]", "values": [{"measurement": "pIC50", "setting": "Erk2", "result": 8.52}, {"measurement": "pEC50", "setting": "Hct116", "result": 6.04}]}
{"smiles": "Cc1n[nH]c(C)c1-c1cnc2ccc(NC(=O)N[C@H](C)CCCc3ccccc3)nc2n1", "note": "[Compound 177, 1-[3-(3,5-Dimethyl-1H-pyrazol-4-yl)-pyrido[2,3-b]pyrazin-6-yl]-3-((R)-1-methyl-4-phenyl-butyl)-urea]", "values": [{"measurement": "pIC50", "setting": "Erk2", "result": 8.22}, {"measurement": "melting point", "result": "266 to 269", "unit": "°C"}]}
{"smiles": "Cn1cc(-c2cnc3ccc(NC(=O)NCCCCc4ccccc4)nc3n2)cn1", "note": "[Compound 155, 1-[3-(1-Methyl-1H-pyrazol-4-yl)-pyrido[2,3-b]pyrazin-6-yl]-3-(4-phenyl-butyl)-urea]", "values": [{"measurement": "pIC50", "setting": "Erk2", "result": 8.40}, {"measurement": "pEC50", "setting": "Hct116", "result": 6.47}, {"measurement": "melting point", "result": "198 to 201", "unit": "°C"}]}
{"smiles": "C[C@H](CCCc1ccccc1)NC(=O)Nc1ccc2ncc(-c3cn[nH]c3)nc2n1", "note": "[Compound 171, 1-((R)-1-Methyl-4-phenyl-butyl)-3-[3-(1H-pyrazol-4-yl)-pyrido[2,3-b]pyrazin-6-yl]-urea]", "values": [{"measurement": "pIC50", "setting": "Erk2", "result": 8.40}, {"measurement": "melting point", "result": "274 to 276", "unit": "°C"}]}
{"smiles": "O=C(NCCCCc1ccccc1)Nc1ccc2ncc(N3CCCC3)nc2n1", "note": "[Compound 172, 1-(4-Phenyl-butyl)-3-(3-pyrrolidin-1-yl-pyrido[2,3-b]pyrazin-6-yl)-urea]", "values": [{"measurement": "pIC50", "setting": "Erk2", "result": 8.30}, {"measurement": "melting point", "result": "204 to 206", "unit": "°C"}]}
{"smiles": "C[C@H](CCCc1ccccc1)NC(=O)Nc1ccc2ncc(-c3cccc(C(=O)O)c3)nc2n1", "note": "[Compound 196, 3-{6-[3-((R)-1-Methyl-4-phenyl-butyl)-ureido]-pyrido[2,3-b]pyrazin-3-yl}-benzoic acid]", "values": [{"measurement": "pIC50", "setting": "Erk2", "result": 8.40}, {"measurement": "melting point", "result": "261 °C (dec.)"}]}
{"smiles": "Cn1cc(-c2cnc3ccc(NC(=O)NCCCC(C)(C)c4ccccc4)nc3n2)cn1", "note": "[Compound 169, 1-(4-Methyl-4-phenyl-pentyl)-3-[3-(1-methyl-1H-pyrazol-4-yl)-pyrido[2,3-b]pyrazin-6-yl]-urea]", "values": [{"measurement": "pIC50", "setting": "Erk2", "result": 8.52}, {"measurement": "pEC50", "setting": "Hct116", "result": 6.25}, {"measurement": "melting point", "result": "208 to 210", "unit": "°C"}]}
{"smiles": "C[C@H](CCCc1ccccc1)NC(=O)Nc1ccc2ncc(N3CCOCC3)nc2n1", "note": "[Compound 166, 1-((R)-1-Methyl-4-phenyl-butyl)-3-(3-morpholin-4-yl-pyrido[2,3-b]pyrazin-6-yl)-urea]", "values": [{"measurement": "pIC50", "setting": "Erk2", "result": 8.52}, {"measurement": "melting point", "result": "201 to 203", "unit": "°C"}]}
{"smiles": "COc1cc(CO)ccc1-c1cnc2ccc(NC(=O)N[C@H](C)CCCc3ccccc3)nc2n1", "note": "[Compound 156, 1-[3-(4-Hydroxymethyl-2-methoxy-phenyl)-pyrido[2,3-b]pyrazin-6-yl]-3-((R)-1-methyl-4-phenyl-butyl)-urea]", "values": [{"measurement": "pIC50", "setting": "Erk2", "result": 9.00}, {"measurement": "melting point", "result": "168 to 170", "unit": "°C"}]}
{"smiles": "O=C(NCCCCc1ccccc1)Nc1ccc2ncc(-c3cccc(CO)c3)nc2n1", "note": "[Compound 175, 1-[3-(3-Hydroxymethyl-phenyl)-pyrido[2,3-b]pyrazin-6-yl]-3-(4-phenyl-butyl)-urea]", "values": [{"measurement": "pIC50", "setting": "Erk2", "result": 8.22}]}
{"smiles": "C[C@H](CCCc1ccccc1)NC(=O)Nc1ccc2ncc(-c3ccncc3)nc2n1", "note": "[Compound 157, 1-((R)-1-Methyl-4-phenyl-butyl)-3-(3-pyridin-4-yl-pyrido[2,3-b]pyrazin-6-yl)-urea]", "values": [{"measurement": "pIC50", "setting": "Erk2", "result": 8.70}, {"measurement": "melting point", "result": "223 to 226", "unit": "°C"}]}
{"smiles": "O=C(NCCCCc1ccccc1)Nc1ccc2ncc(-c3ccc(OP(=O)(O)O)cc3)nc2n1", "note": "[Compound 165, Phosphoric acid mono-(4-{6-[3-(4-phenyl-butyl)-ureido]-pyrido[2,3-b]pyrazin-3-yl}-phenyl) ester]", "values": [{"measurement": "pIC50", "setting": "Erk2", "result": 8.52}, {"measurement": "pEC50", "setting": "Hct116", "result": 5.50}, {"measurement": "melting point", "result": 202, "unit": "°C"}]}
{"smiles": "O=C(NCCCCc1ccccc1)Nc1ccc2ncc(-c3cnn(CCO)c3)nc2n1", "note": "[Compound 189, 1-{3-[1-(2-Hydroxy-ethyl)-1H-pyrazol-4-yl]-pyrido[2,3-b]pyrazin-6-yl}-3-(4-phenyl-butyl)-urea]", "values": [{"measurement": "pIC50", "setting": "Erk2", "result": 8.40}]}
{"smiles": "C[C@H](CCCc1ccccc1)NC(=O)Nc1ccc2ncc(-c3ccc(C[C@H](N)C(=O)O)cc3)nc2n1", "note": "[Compound 195, (S)-2-Amino-3-(4-{6-[3-((R)-1-methyl-4-phenyl-butyl)-ureido]-pyrido[2,3-b]pyrazin-3-yl}-phenyl)-propionic acid; hydrochloride]", "values": [{"measurement": "pIC50", "setting": "Erk2", "result": 9.00}]}
{"smiles": "O=C(NCCCCc1ccccc1)Nc1ccc2ncc(-c3cnn(CCCO)c3)nc2n1", "note": "[Compound 162, 1-{3-[1-(3-Hydroxy-propyl)-1H-pyrazol-4-yl]-pyrido[2,3-b]pyrazin-6-yl}-3-(4-phenyl-butyl)-urea]", "values": [{"measurement": "pIC50", "setting": "Erk2", "result": 8.70}]}
{"smiles": "CCn1cc(-c2cnc3ccc(NC(=O)NCCCCc4ccccc4)nc3n2)cn1", "note": "[Compound 108, 1-[3-(1-Ethyl-1H-pyrazol-4-yl)-pyrido[2,3-b]pyrazin-6-yl]-3-(4-phenyl-butyl)-urea]", "values": [{"measurement": "pIC50", "setting": "Erk2", "result": 8.40}, {"measurement": "melting point", "result": "207 to 208", "unit": "°C"}]}
{"smiles": "COc1ccccc1-c1cnc2ccc(NC(=O)N[C@H](C)CCCc3ccccc3)nc2n1", "note": "[Compound 179, 1-[3-(2-Methoxy-phenyl)-pyrido[2,3-b]pyrazin-6-yl]-3-((R)-1-methyl-4-phenyl-butyl)-urea]", "values": [{"measurement": "pIC50", "setting": "Erk2", "result": 8.22}, {"measurement": "melting point", "result": "137 to 138", "unit": "°C"}]}
{"smiles": "O=C(NCCCCc1ccccc1)Nc1ccc2ncc(-c3cnn(CCN4CCOCC4)c3)nc2n1", "note": "[Compound 127, 1-{3-[1-(2-Morpholin-4-yl-ethyl)-1H-pyrazol-4-yl]-pyrido[2,3-b]pyrazin-6-yl}-3-(4-phenyl-butyl)-urea]", "values": [{"measurement": "pIC50", "setting": "Erk2", "result": 8.30}]}
{"smiles": "N[C@@H](Cc1ccc(-c2cnc3ccc(NC(=O)NCCCCc4ccccc4)nc3n2)cc1)C(=O)O", "note": "[Compound 197, (S)-2-Amino-3-(4-{6-[3-(4-phenyl-butyl)-ureido]-pyrido[2,3-b]pyrazin-3-yl}-phenyl)-propionic acid]", "values": [{"measurement": "pIC50", "setting": "Erk2", "result": 8.30}, {"measurement": "melting point", "result": "230 to 232", "unit": "°C"}]}
{"smiles": "O=C(NCCCCc1ccccc1)Nc1ccc2ncc(-c3cccc(C(=O)O)c3)nc2n1", "note": "[Compound 198, 3-{6-[3-(4-Phenyl-butyl)-ureido]-pyrido[2,3-b]pyrazin-3-yl}-benzoic acid]", "values": [{"measurement": "pIC50", "setting": "Erk2", "result": 8.52}, {"measurement": "melting point", "result": "254 to 256", "unit": "°C"}]}
{"smiles": "O=C(NCCCCc1ccccc1)Nc1ccc2ncc(-c3ccc(O)c(F)c3)nc2n1", "note": "[Compound 174, 1-[3-(3-Fluoro-4-hydroxy-phenyl)-pyrido[2,3-b]-pyrazin-6-yl]-3-(4-phenyl-butyl)-urea]", "values": [{"measurement": "pIC50", "setting": "Erk2", "result": 8.22}]}
{"smiles": "COc1ncccc1-c1cnc2ccc(NC(=O)N[C@H](C)CCCc3ccccc3)nc2n1", "note": "[Compound 161, 1-[3-(2-Methoxy-pyridin-3-yl)-pyrido[2,3-b]pyrazin-6-yl]-3-((R)-1-methyl-4-phenyl-butyl)-urea]", "values": [{"measurement": "pIC50", "setting": "Erk2", "result": 8.70}, {"measurement": "melting point", "result": "161 to 163", "unit": "°C"}]}
{"smiles": "COc1ccc(-c2cnc3ccc(NC(=O)NCCCCc4ccccc4)nc3n2)cc1OC", "note": "[Compound 178, 1-[3-(3,4-Dimethoxy-phenyl)-pyrido[2,3-b]pyrazin-6-yl]-3-(4-phenyl-butyl)-urea]", "values": [{"measurement": "pIC50", "setting": "Erk2", "result": 8.22}, {"measurement": "melting point", "result": "210 to 211", "unit": "°C"}]}
{"smiles": "O=C(NCCCCc1ccccc1)Nc1ccc2ncc(N3CCOCC3)nc2n1", "note": "[Compound 176, 1-(3-Morpholin-4-yl-pyrido[2,3-b]pyrazin-6-yl)-3-(4-phenyl-butyl)-urea]", "values": [{"measurement": "pIC50", "setting": "Erk2", "result": 8.22}, {"measurement": "melting point", "result": "200 to 202", "unit": "°C"}]}
